From article PMC10215355, “Chemical Composition of the Cinnamomum malabatrum Leaf Essential Oil and Analysis of Its Antioxidant, Enzyme Inhibitory and Antibacterial Activities” (Antibiotics, 2023)
≈ marks a conversion by molar mass, not a printed value.

Tests used:
[1] = DPPH radical scavenging; settings: 0 to 100 µg/mL series
Method: (§1) The concentration of essential oil used was a different series from 0 to 100 μg/mL for each radical quenching assay. The quenching of DPPH radicals was analyzed using the methods of [70]. The ABTS radicals scavenging activity was analyzed according to the methods of Li et al.. The hydrogen peroxide quenching potential of the essential oil was following the methods of Munteanu and […] [72]. The ferric-reducing abilities of the essential oil were estimated according to the methods described by He et al.. The methods described by Okoh et al.

[2] = ABTS radical scavenging; settings: 0 to 100 µg/mL series
Method: as §1

[3] = H2O2 radical scavenging (hydrogen peroxide quenching); settings: 0 to 100 µg/mL series
Method: as §1

[4] = Lipid peroxidation inhibition (ex vivo); settings: 0 to 100 µg/mL series
Method: as §1

[5] = biological target: α-amylase; experiment: α-Amylase inhibition; type: biochemical; settings: 0–100 μg/mL
[6] = biological target: aldose reductase (Homo sapiens, UniProt P15121); experiment: Aldose reductase inhibition; type: biochemical; settings: 0–100 μg/mL
[7] = biological target: T1, sorbitol dehydrogenase (Homo sapiens, UniProt Q00796); experiment: Sorbitol dehydrogenase inhibition; type: biochemical; settings: 0–100 μg/mL
T1 sequence (Q00796 1-357): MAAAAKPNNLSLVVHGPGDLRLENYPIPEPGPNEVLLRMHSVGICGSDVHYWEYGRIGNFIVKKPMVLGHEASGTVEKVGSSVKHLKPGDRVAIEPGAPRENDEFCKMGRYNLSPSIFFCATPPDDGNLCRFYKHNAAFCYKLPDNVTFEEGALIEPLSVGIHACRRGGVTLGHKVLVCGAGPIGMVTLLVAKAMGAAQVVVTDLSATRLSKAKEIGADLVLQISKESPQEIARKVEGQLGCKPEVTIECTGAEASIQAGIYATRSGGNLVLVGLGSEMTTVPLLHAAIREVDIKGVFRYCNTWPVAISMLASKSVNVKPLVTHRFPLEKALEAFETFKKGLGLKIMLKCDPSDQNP

[8] = biological target: α-glucosidase; experiment: α-Glucosidase inhibition; settings: 0–100 μg/mL
Method: The enzyme-inhibitory potential of the essential oil was evaluated by mixing different concentrations (0–100 μg/mL) against the respective enzymes and their substrates. The enzyme activities will be estimated in terms of the substrate utilized after incubation. The inhibition of α-amylase [75], α-glucosidase [76], aldose reductase [77] and sorbitol dehydrogenase [78] was carried out according to the methods previously described.

[9] = test system: Staphylococcus aureus; experiment: Disc diffusion method; type: cell-based; settings: 8 mm disc, 10 μL oil, 24 h
[10] = test system: Bacillus cereus; experiment: Disc diffusion method; type: cell-based; settings: 8 mm disc, 10 μL oil, 24 h
[11] = test system: Streptococcus pyogenes; experiment: Disc diffusion method; type: cell-based; settings: 8 mm disc, 10 μL oil, 24 h
[12] = test system: Escherichia coli; experiment: Disc diffusion method; type: cell-based; settings: 8 mm disc, 10 μL oil, 24 h
[13] = test system: Salmonella enterica; experiment: Disc diffusion method; type: cell-based; settings: 8 mm disc, 10 μL oil, 24 h
Source text: (§2) The bacteria were procured from Microbial Type Culture Collection and Gene Bank (MTCC), Chandigarh and maintained under standard conditions as prescribed by Bonnet, et al.. The bacterial strains used include Escherichia coli, Pseudomonas aeruginosa, Staphylococcus aureus, Bacillus cereus, Streptococcus pyogenes and Salmonella enterica.
Initially, the bacteria cultured were completed in Luria-Bertani broth; for the antibacterial study, the inoculum of the bacteria was made on a Mueller Hinton Agar (MHA) agar plate (Himedia, Mumbai, Maharashtra, India) at a thickness of 5 mm. Later, a filter paper disc (8 mm in diameter) containing the leaf essential oil of C. malabatrum (10 μL) was placed in the agar plate at a distance of 50 mm. At the end of 24 h, the formation of the growth inhibition zone was estimated.

[14] = test system: Staphylococcus aureus; experiment: Minimum inhibitory concentration (96-well, TTC); type: cell-based
[15] = test system: Bacillus cereus; experiment: Minimum inhibitory concentration (96-well, TTC); type: cell-based
[16] = test system: Streptococcus pyogenes; experiment: Minimum inhibitory concentration (96-well, TTC); type: cell-based
[17] = test system: Escherichia coli; experiment: Minimum inhibitory concentration (96-well, TTC); type: cell-based
[18] = test system: Pseudomonas aeruginosa; experiment: Minimum inhibitory concentration (96-well, TTC); type: cell-based
[19] = test system: Salmonella enterica; experiment: Minimum inhibitory concentration (96-well, TTC); type: cell-based
Source text: as §2
The determination of the MIC value was made according to the methods described by Campana, et al.. Before beginning, the density of the inoculum was spectrophotometrically set to 5 × 10^5 CFU/mL. From this, about 50 µL was transferred to individual wells of a 96-well plate containing different concentrations of C. malabatrum essential oil. Later, 2,3,5-triphenyltetrazolium chloride (10 µL) was added to each well; the pink color of the 2,3,5-triphenyltetrazolium chloride was lost in the absence of bacterial growth. The MIC value was considered as the lowest concentration without a detectable pink color.

[20] = Ferric-reducing potential (FRAP); settings: 0 to 100 µg/mL series
Method: as §1

[21] = test system: Pseudomonas aeruginosa; experiment: Disc diffusion method; type: cell-based; settings: 8 mm disc, 10 μL oil, 24 h

SMILES	DPPH radical scavenging IC50 [1]	ABTS radical scavenging IC50 [2]	H2O2 radical scavenging IC50 [3]	Lipid peroxidation inhibition IC50 [4]	α-Amylase inhibition IC50 [5]	IC50 [6]	IC50 [7]	α-Glucosidase inhibition IC50 [8]	Zone of Inhibition [9]	Zone of Inhibition [10]	Zone of Inhibition [11]	Zone of Inhibition [12]	Zone of Inhibition [13]	MIC [14]	MIC [15]	MIC [16]	MIC [17]	MIC [18]	MIC [19]	also measured
O=C1O[C@H]([C@@H](O)CO)C(O)=C1O [Ascorbic Acid]	8.13 ± 0.09 µg/mL	12.82 ± 0.40 µg/mL	19.11 ± 0.26 µg/mL	63.02 ± 0.33 µg/mL	45.17 ± 2.36 µg/mL	163 µM	341 µM	36.03 ± 1.98 µg/mL	–	–	–	–	–	–	–	–	–	–	–	–
CNC(C)C1CCC(N)C(OC2C(N)CC(N)C(OC3OCC(C)(O)C(NC)C3O)C2O)O1 (stereo not shown) [GM, gentamicin]	–	–	–	–	–	–	–	–	18.5 ± 0.5 mm	21.3 ± 0.5 mm	19.2 ± 0.7 mm	21.3 ± 0.3 mm	19.9 ± 0.3 mm	325 µg/mL (≈ 680 µM)	325 µg/mL (≈ 680 µM)	167 µg/mL (≈ 350 µM)	325 µg/mL (≈ 680 µM)	167 µg/mL (≈ 350 µM)	167 µg/mL (≈ 350 µM)	–
C=CC(C)(O)CCC=C(C)C (stereo not shown) [Linalool]	35.22 ± 0.11 µg/mL	40.01 ± 1.33 µg/mL	38.09 ± 2.45 µg/mL	78.49 ± 3.07 µg/mL	62.34 ± 2.91 µg/mL	383 µM	573 µM	30.93 ± 3.41 µg/mL	18.1 ± 0.2 mm	17.6 ± 0.3 mm	17.9 ± 0.1 mm	17.8 ± 0.1 mm	16.8 ± 0.3 mm	325 µg/mL (≈ 2110 µM)	625 ± 100 µg/mL (≈ 4050 µM)	325 µg/mL (≈ 2110 µM)	625 ± 50 µg/mL (≈ 4050 µM)	325 ± 100 µg/mL (≈ 2110 µM)	325 µg/mL (≈ 2110 µM)	Ferric-reducing potential IC50 [20]: 35.93 ± 0.24 µg/mL; Zone of Inhibition [21]: 19.3 ± 0.2 mm
